Results taken from ChEMBL document CHEMBL2150937, “Elaiomycins D-F, antimicrobial and cytotoxic azoxides from Streptomyces sp. strain HKI0708” (J Nat Prod, 2012).
In brackets after ≈: the same amount, converted by molar mass.

How the values were obtained:
[1] = system: Pseudomonas aeruginosa; assay: Antibacterial activity against Pseudomonas aeruginosa SG 137 B7 assessed as zone of inhibition at 50 ug/disc after 24 hrs by agar diffusion assay; format: functional; details: SG 137 B7, 24 h, read-out: IZ
[2] = system: HUVEC; assay: Antiproliferative activity against HUVEC; format: functional; details: Homo sapiens
[3] = system: Bacillus subtilis; assay: Antibacterial activity against Bacillus subtilis 6633 B1 assessed as zone of inhibition at 50 ug/disc after 24 hrs by agar diffusion assay; format: functional; details: 6633 B1, 24 h, read-out: IZ
[4] = system: Aspergillus fumigatus; assay: Antifungal activity against Aspergillus fumigatus ATCC 46645 assessed as zone of inhibition at 50 ug/disc after 24 hrs by agar diffusion assay; format: functional; details: ATCC 46645, 24 h, read-out: IZ
[5] = Cytotoxicity against human LXFA 629L cells by propidium iodide-based fluorescence assay; format: functional, cell-based
[6] = system: Mycolicibacterium vaccae; assay: Antibacterial activity against Mycobacterium vaccae 10670 M4 assessed as zone of inhibition at 50 ug/disc after 24 hrs by agar diffusion assay; format: functional; details: 10670 M4, 24 h, read-out: IZ
[7] = system: Penicillium chrysogenum; assay: Antifungal activity against Penicillium notatum JP36 P1 assessed as zone of inhibition at 50 ug/disc after 24 hrs by agar diffusion assay; format: functional; details: JP36 P1, 24 h, read-out: IZ
[8] = system: Escherichia coli; assay: Antibacterial activity against Escherichia coli 458 B4 assessed as zone of inhibition at 50 ug/disc after 24 hrs by agar diffusion assay; format: functional; details: 458 B4, 24 h, read-out: IZ
[9] = Cytotoxicity against human LXFL 529L cells by propidium iodide-based fluorescence assay; format: functional, cell-based
[10] = Cytotoxicity against human OVXF 899L cells by propidium iodide-based fluorescence assay; format: functional, cell-based
[11] = system: Candida albicans; assay: Antifungal activity against Candida albicans H8 assessed as zone of inhibition at 50 ug/disc after 24 hrs by agar diffusion assay; format: functional; details: H8, 24 h, read-out: IZ
[12] = system: K562; assay: Antiproliferative activity against human K562 cells; format: functional
[13] = system: Aspergillus terreus; assay: Antifungal activity against amphotericin-resistant Aspergillus terreus DSM 826 assessed as zone of inhibition at 50 ug/disc after 24 hrs by agar diffusion assay; format: functional; details: DSM 826, 24 h, read-out: IZ
[14] = Cytotoxicity against human MAXF 401NL cells by propidium iodide-based fluorescence assay; format: functional, cell-based
[15] = system: Enterococcus faecalis; assay: Antibacterial activity against vancomycin-resistant Enterococcus faecalis 1528 R10 assessed as zone of inhibition at 50 ug/disc after 24 hrs by agar diffusion assay; format: functional; details: 1528 R10, 24 h, read-out: IZ
[16] = system: Pseudomonas aeruginosa; assay: Antibacterial activity against Pseudomonas aeruginosa K 799/61 B9 assessed as zone of inhibition at 50 ug/disc after 24 hrs by agar diffusion assay; format: functional; details: K 799/61 B9, 24 h, read-out: IZ
[17] = Cytotoxicity against human GXF251L cells by propidium iodide-based fluorescence assay; format: functional, cell-based; details: GXF 251L
[18] = Cytotoxicity against human UXF 1138L cells by propidium iodide-based fluorescence assay; format: functional, cell-based
[19] = system: HeLa; assay: Cytotoxicity against human HeLa cells; format: functional
[20] = system: Sporobolomyces salmonicolor; assay: Antifungal activity against Sporidiobolus salmonicolor 549 H4 assessed as zone of inhibition at 50 ug/disc after 24 hrs by agar diffusion assay; format: functional; details: 549 H4, 24 h, read-out: IZ
[21] = Cytotoxicity against human RXF 486L cells by propidium iodide-based fluorescence assay; format: functional, cell-based
[22] = Cytotoxicity against human PXF 1752L cells by propidium iodide-based fluorescence assay; format: functional, cell-based
[23] = Cytotoxicity against human PAXF 1657L cells by propidium iodide-based fluorescence assay; format: functional, cell-based
[24] = Cytotoxicity against human CXF HT29 cells by propidium iodide-based fluorescence assay; format: functional, cell-based; details: HT-29
[25] = system: Staphylococcus aureus; assay: Antibacterial activity against Staphylococcus aureus 511 B3 assessed as zone of inhibition at 50 ug/disc after 24 hrs by agar diffusion assay; format: functional; details: 511 B3, 24 h, read-out: IZ
[26] = Cytotoxicity against human PRXF 22Rv1 cells by propidium iodide-based fluorescence assay; format: functional, cell-based, CWR22R
[27] = Cytotoxicity against human MEXF 462NL cells by propidium iodide-based fluorescence assay; format: functional, cell-based
[28] = system: Aspergillus niger; assay: Antifungal activity against Aspergillus niger DSM 737 assessed as zone of inhibition at 50 ug/disc after 24 hrs by agar diffusion assay; format: functional; details: DSM 737, 24 h, read-out: IZ
[29] = system: Staphylococcus aureus; assay: Antibacterial activity against methicillin-resistant Staphylococcus aureus 134/93 R9 assessed as zone of inhibition at 50 ug/disc after 24 hrs by agar diffusion assay; format: functional; details: 134/93 R9, 24 h, read-out: IZ

SMILES	zone of inhibition at 50 µg/disc [1]	GI50 [2]	zone of inhibition at 50 µg/disc [3]	zone of inhibition at 50 µg/disc [4]	IC50 [5]	zone of inhibition at 50 µg/disc [6]	zone of inhibition at 50 µg/disc [7]	zone of inhibition at 50 µg/disc [8]	IC50 [9]	IC50 [10]	zone of inhibition at 50 µg/disc [11]	GI50 [12]	zone of inhibition at 50 µg/disc [13]	zone of inhibition at 50 µg/disc [15]	zone of inhibition at 50 µg/disc [16]	CC50 [19]	zone of inhibition at 50 µg/disc [20]	zone of inhibition at 50 µg/disc [25]	zone of inhibition at 50 µg/disc [28]	zone of inhibition at 50 µg/disc [29]	also measured
CCCCCC/C=C\[N+]([O-])=N\[C@@H](COC)[C@H](C)O [ELAIOMYCIN]	0 mm	30.4 mg/L (≈ 118 µM)	10 mm	0 mm	9.24 µM	14 mm	0 mm	0 mm	14.7 µM	11.8 µM	0 mm	> 50 mg/L	0 mm	0 mm	0 mm	35.1 mg/L (≈ 136 µM)	12 mm	0 mm	0 mm	0 mm	IC50 [14]: 10.8 µM; IC50 [17]: 7.97 µM; IC50 [18]: 14.7 µM; IC50 [21]: > 30 µM; IC50 [22]: 10.2 µM; IC50 [23]: 20.2 µM; IC50 [24]: 9.72 µM; IC50 [26]: 9.21 µM; IC50 [27]: 10.4 µM
CCCCCCCC/[N+]([O-])=N/[C@@H](COC)[C@H](C)O [ELAIOMYCIN F]	0 mm	> 50 mg/L	0 mm	0 mm		0 mm	0 mm	0 mm			0 mm	> 50 mg/L	0 mm	0 mm	0 mm	30.5 mg/L (≈ 117 µM)	0 mm	0 mm	0 mm	0 mm	
CCCCCCCC/[N+]([O-])=N/[C@@H](COC)C(N)=O [ELAIOMYCIN H]	0 mm	38.2 mg/L (≈ 147 µM)	0 mm	13 mm	1.2 µM	12 mm	0 mm	0 mm	8.57 µM	9.84 µM	0 mm	37.5 mg/L (≈ 145 µM)	15 mm	0 mm	0 mm	40.5 mg/L (≈ 156 µM)	14 mm	0 mm	0 mm	0 mm	IC50 [14]: 3.74 µM; IC50 [17]: 4.65 µM; IC50 [18]: 8.88 µM; IC50 [21]: 9.49 µM; IC50 [22]: 5.99 µM; IC50 [23]: 5.42 µM; IC50 [24]: 1.15 µM; IC50 [26]: 8.01 µM; IC50 [27]: 3.95 µM
COC[C@H](/N=[N+](\[O-])CCCCCCC(C)=O)[C@H](C)O [ELAIOMYCIN G]	0 mm	> 50 mg/L	0 mm	0 mm		11 mm	0 mm	0 mm			0 mm	> 50 mg/L	0 mm	0 mm	0 mm	> 50 mg/L	13 mm	0 mm	0 mm	0 mm	
CCCCCC(O)/C=C/[N+]([O-])=N/[C@@H](COC)[C@H](C)O (stereo partly specified) [ELAIOMYCIN E]	10 mm	31.2 mg/L (≈ 114 µM)	10 mm	0 mm		0 mm	0 mm	0 mm			0 mm	30.3 mg/L (≈ 110 µM)	0 mm	10 mm	0 mm	> 50 mg/L	0 mm	0 mm	0 mm	0 mm	
COC[C@H](/N=[N+]([O-])/C=C/CCCCC(C)=O)[C@H](C)O [ELAIOMYCIN D]	0 mm	> 50 mg/L	0 mm	0 mm		0 mm	0 mm	0 mm			0 mm	> 50 mg/L	0 mm	0 mm	0 mm	> 50 mg/L	0 mm	0 mm	0 mm	0 mm	
